Test results taken from patent US20190010167A1, “INHIBITORS OF THE MENIN-MLL INTERACTION” (Vitae Pharmaceuticals, Inc., priority 2015, published 2019).
Structures can show the parent of a compound that is named as a salt.

Key:
[1] = target: T1, menin/MLL (Gal4-Menin and MLL1-46-VP16) in HEK293 cells (Homo sapiens, UniProt O00255); assay: Mammalian cellular two-hybrid assay in HEK293 cells (Assay 2, cell assay); format: cell-based; details: Gal4-Menin/MLL1-46-VP16 two-hybrid, NanoLuc luciferase reporter, 16-18 h
T1 construct: expressed in transfected cells; host or cells: HEK293 (ATCC)
T1 sequence (P04386 1-147 partner limits assumed, species assumed, one chain of several): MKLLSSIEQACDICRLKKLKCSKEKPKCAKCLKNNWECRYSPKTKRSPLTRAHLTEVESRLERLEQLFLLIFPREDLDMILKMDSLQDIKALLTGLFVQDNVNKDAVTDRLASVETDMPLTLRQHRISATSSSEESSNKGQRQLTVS
Procedure: Potencies of inhibitor compounds against menin/MLL were tested in a mammalian cellular two-hybrid assay system. HEK293 cells (American Type Culture Collection (ATCC); Manassas, Va.) were co-transfected with three plasmids: one encoding Gal4-Menin (200 ng per 10^6 cells), another encoding MLL1-46-VP16 (100 ng per 10^6 cells), and a reporter plasmid pNL3.3-4×UAS (500 ng per 10^6 cells) encoding secreted NanoLuc® luciferase (Promega) with the upstream 4×UAS repeats for Gal4 binding. Transfection was performed in Opti-MEM® media using Lipofectamine® LTX with Plus™ Reagent (ThermoFisher Scientific) according to manufacturer's protocol. Cells were incubated with transfection reagents at 37° C. 5% CO2 for 5-6 h, harvested by trypsinization and centrifugation at 300×g for 5 min and resuspended in Gibco® DMEM media (phenol red-free, no antibiotics) containing 10% delipidated fetal bovine serum (FBS) (ThermoFisher Scientific). Concentration of cells in the media was adjusted to 3.5×10^5 cells/ml, and 100 μl of the cell suspension was dispensed into each well of 96-well Costar™ black clear bottom cell culture plates (Fisher Scientific). Tested compounds were added as 100 μL of 2× solutions in the media. Final concentration of DMSO was 0.1% in all wells. The cells were incubated with tested compounds at 37° C. 5% CO2 for 16-18 h. At the end of the incubation, 40 μL of the conditioned media from each well was transferred into each well of 96-well Costar™ black half-area plates (Fisher Scientific), to which 40 μl of 2× reconstituted NanoGlo® luciferase assay reagent (Promega) was added and thoroughly mixed on a microshaker for 2-3 min. Remaining media in the culture plates was removed by emptying the wells and blotting the plates on filter paper. The cells were lysed with 1× CellTiter-Glo® Luminescent Cell Viability Assay reagent (Promega) for assessing toxicity of the tested compounds. Both, Nano-Glo® and CellTiter-Glo® luminescence intensities were measured on EnVision® multilabel plate reader (PerkinElmer). Percent inhibition values were calculated based on Nano-Glo® luciferase activity observed with the tested compounds vs. DMSO control and commercially available menin inhibitor MI-2-2 (4-(4-(5,5-Dimethyl-4,5-dihydrothiazol-2-yl)piperazin-1-yl)-6-(2,2,2-trifluoroethyl)thieno[2,3-d]pyrimidine) (EMD Millipore, Cat. No. 444825) incubated with cells at 5 μM. These percent inhibition values were regressed against compound concentrations in the assay using non-linear 4-parameter logit curve fitting (XLFit, IDBS). Half maximal inhibitory concentrations (IC50) were calculated as the parameters of the fit corresponding to the inflection points on semi-logarithmic dose-response curves.

[2] = target: T2, wild-type menin / MLL-AF9 fusion protein (Homo sapiens, UniProt O00255); assay: AlphaLISA menin/MLL binding assay, wild-type menin (Assay 1); details: biotinylated wild-type menin 5 nM, MLL-AF9-FLAG lysate
T2 construct: made in house; host or cells: E. coli (menin); HEK293 cleared lysate (MLL-AF9-FLAG)
T2 sequence (O00255 1-610): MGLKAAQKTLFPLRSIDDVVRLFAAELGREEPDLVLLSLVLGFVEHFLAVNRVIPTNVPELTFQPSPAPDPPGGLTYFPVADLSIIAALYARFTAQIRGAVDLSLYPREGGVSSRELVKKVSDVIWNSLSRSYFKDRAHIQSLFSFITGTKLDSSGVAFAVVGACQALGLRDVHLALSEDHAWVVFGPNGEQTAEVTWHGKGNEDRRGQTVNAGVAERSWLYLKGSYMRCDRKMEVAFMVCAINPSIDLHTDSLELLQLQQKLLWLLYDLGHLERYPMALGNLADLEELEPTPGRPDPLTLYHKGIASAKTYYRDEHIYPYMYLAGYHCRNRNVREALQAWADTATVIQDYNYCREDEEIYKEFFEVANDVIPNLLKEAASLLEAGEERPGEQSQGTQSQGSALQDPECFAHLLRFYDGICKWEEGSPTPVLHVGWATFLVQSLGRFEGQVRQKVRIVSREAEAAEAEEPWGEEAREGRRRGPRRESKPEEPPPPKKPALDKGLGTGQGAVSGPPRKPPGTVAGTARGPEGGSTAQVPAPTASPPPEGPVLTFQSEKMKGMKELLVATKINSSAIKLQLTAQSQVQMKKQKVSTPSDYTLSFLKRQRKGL
How it was run: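 Biotinylated wild-type or mutated menin (5 nM, E. coli-expressed) was preincubated 30 min at RT with compound and HEK293 lysate containing MLL1-1,396–AF9 1-92–FLAG. Buffer was 50 mM Tris-HCl pH 7.4, 5% DMSO, 50 mM NaCl, 0.01% BSA, 1 mM DTT. Anti-FLAG acceptor and streptavidin donor beads (10 μg/mL each) were then added for 60 min. IC50 came from a four-parameter fit of the Alpha signal inhibition.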

Compound	IC50 [1]	IC50 [2]
FC(F)(F)Cc1cc2c(N3CC4(CN(CC5CCCC(F)(F)C5)C4)C3)ncnc2s1 (stereo not drawn) [Example 63, 4-(6-((3,3-difluorocyclohexyl)methyl)-2,6-diazaspiro[3.3]heptan-2-yl)-6-(2,2,2-trifluoroethyl)thieno[2,3-d]pyrimidine]	100 to 1000 nM	< 100 nM
CC1(C)CCCC(CN2CC3(C2)CN(c2ncnc4sc(CC(F)(F)F)cc24)C3)C1 (stereo not drawn) [Example 65, 4-(6-((3,3-dimethylcyclohexyl)methyl)-2,6-diazaspiro[3.3]heptan-2-yl)-6-(2,2,2-trifluoroethyl)thieno[2,3-d]pyrimidine]	100 to 1000 nM	< 100 nM
FC(F)(F)Cc1cc2c(N3CC4(CN(CC5CCOCC5)C4)C3)ncnc2s1 [Example 66, 4-(6-((tetrahydro-2H-pyran-4-yl)methyl)-2,6-diazaspiro[3.3]heptan-2-yl)-6-(2,2,2-trifluoroethyl)thieno[2,3-d]pyrimidine]	100 to 1000 nM	100 to 1000 nM
FC(F)(F)Cc1cc2c(N3CC4(CN(CC5CCCC5)C4)C3)ncnc2s1 [Example 68, 4-(6-(cyclopentylmethyl)-2,6-diazaspiro[3.3]heptan-2-yl)-6-(2,2,2-trifluoroethyl)thieno[2,3-d]pyrimidine]	100 to 1000 nM	< 100 nM
FC(F)(F)Cc1cc2c(N3CC4(CN(CC5CCCCC5)C4)C3)ncnc2s1 [Example 69, 4-(6-(cyclohexylmethyl)-2,6-diazaspiro[3.3]heptan-2-yl)-6-(2,2,2-trifluoroethyl)thieno[2,3-d]pyrimidine]	100 to 1000 nM	< 100 nM
COC1CCC(CN2CC3(C2)CN(c2ncnc4sc(CC(F)(F)F)cc24)C3)CC1 (stereo not drawn) [Example 75, 4-(6-((4-methoxycyclohexyl)methyl)-2,6-diazaspiro[3.3]heptan-2-yl)-6-(2,2,2-trifluoroethyl)thieno[2,3-d]pyrimidine]	100 to 1000 nM	100 to 1000 nM
OC1CCC(CN2CC3(C2)CN(c2ncnc4sc(CC(F)(F)F)cc24)C3)CC1 (stereo not drawn) [Example 76, 4-((6-(6-(2,2,2-trifluoroethyl)thieno[2,3-d]pyrimidin-4-yl)-2,6-diazaspiro[3.3]heptan-2-yl)methyl)cyclohexan-1-ol]	100 to 1000 nM	< 100 nM
Cc1c(CN2CCC3(CCN(c4ncnc5ccc(CC(F)(F)F)cc45)C3)C2)ccc2[nH]c(C#N)cc12 (stereo not drawn) [Example 90, 4-methyl-5-((7-(6-(2,2,2-trifluoroethyl)quinazolin-4-yl)-2,7-diazaspiro[4.4]nonan-2-yl)methyl)-1H-indole-2-carbonitrile]	100 to 1000 nM	< 100 nM
Cc1c(CN2CCC3(C2)CN(c2ncnc4sc(CC(F)(F)F)cc24)C3)ccc2[nH]c(C#N)cc12 [Example 92, 4-methyl-5-((2-(6-(2,2,2-trifluoroethyl)thieno[2,3-d]pyrimidin-4-yl)-2,6-diazaspiro[3.4]octan-6-yl)methyl)-1H-indole-2-carbonitrile]	100 to 1000 nM	< 100 nM

The next lines start with the values.

IC50 [1]	IC50 [2]	Compound
≥ 1000 nM	< 100 nM	FC(F)(F)Cc1cc2c(N3CC4(CCN(CC5CCOCC5)C4)C3)ncnc2s1 [Example 93, 4-(6-((tetrahydro-2H-pyran-4-yl)methyl)-2,6-diazaspiro[3.4]octan-2-yl)-6-(2,2,2-trifluoroethyl)thieno[2,3-d]pyrimidine]
< 100 nM	< 100 nM	Cc1c(CN2CCC3(CC2)CN(c2ncnc4sc(CC(F)(F)F)cc24)C3)ccc2[nH]c(C#N)cc12 [Example 96, 4-methyl-5-((2-(6-(2,2,2-trifluoroethyl)thieno[2,3-d]pyrimidin-4-yl)-2,7-diazaspiro[3.5]nonan-7-yl)methyl)-1H-indole-2-carbonitrile hydrochloride]
100 to 1000 nM	< 100 nM	CS(=O)(=O)Nc1ccc(CN2CCC3(CC2)CN(c2ncnc4sc(CC(F)(F)F)cc24)C3)cc1 [Example 97, N-(4-((2-(6-(2,2,2-trifluoroethyl)thieno[2,3-d]pyrimidin-4-yl)-2,7-diazaspiro[3.5]nonan-7-yl)methyl)phenyl)methanesulfonamide]
100 to 1000 nM	100 to 1000 nM	FC(F)(F)Cc1cc2c(N3CC4(CCN(Cc5ccccc5)CC4)C3)ncnc2s1 [Example 98, 4-(7-benzyl-2,7-diazaspiro[3.5]nonan-2-yl)-6-(2,2,2-trifluoroethyl)thieno[2,3-d]pyrimidine]
≥ 1000 nM	100 to 1000 nM	FC(F)(F)Cc1cc2c(N3CC4(CCN(CC5CCOCC5)CC4)C3)ncnc2s1 [Example 99, 4-(7-((tetrahydro-2H-pyran-4-yl)methyl)-2,7-diazaspiro[3.5]nonan-2-yl)-6-(2,2,2-trifluoroethyl)thieno[2,3-d]pyrimidine]
100 to 1000 nM	< 100 nM	CS(=O)(=O)N[C@H]1CC[C@H](CN2CCC3(CC2)CN(c2ncnc4sc(CC(F)(F)F)cc24)C3)CC1 [Example 106, N-((1r,4r)-4-((2-(6-(2,2,2-trifluoroethyl)thieno[2,3-d]pyrimidin-4-yl)-2,7-diazaspiro[3.5]nonan-7-yl)methyl)cyclohexyl)methanesulfonamide]
100 to 1000 nM	< 100 nM	COC(=O)N[C@H]1CC[C@H](CN2CCC3(CC2)CN(c2ncnc4sc(CC(F)(F)F)cc24)C3)CC1 [Example 107, methyl ((1r,4r)-4-((2-(6-(2,2,2-trifluoroethyl)thieno[2,3-d]pyrimidin-4-yl)-2,7-diazaspiro[3.5]nonan-7-yl)methyl)cyclohexyl)carbamate]
100 to 1000 nM	< 100 nM	CC(C)CN1CC2(CCN(c3ncnc4sc(CC(F)(F)F)cc34)C2)C1 [Example 108, 4-(2-isobutyl-2,6-diazaspiro[3.4]octan-6-yl)-6-(2,2,2-trifluoroethyl)thieno[2,3-d]pyrimidine]
100 to 1000 nM	100 to 1000 nM	FC(F)(F)Cc1cc2c(N3CCC4(CN(CC5CCOCC5)C4)C3)ncnc2s1 [Example 109, 4-(2-((tetrahydro-2H-pyran-4-yl)methyl)-2,6-diazaspiro[3.4]octan-6-yl)-6-(2,2,2-trifluoroethyl)thieno[2,3-d]pyrimidine]
100 to 1000 nM	100 to 1000 nM	CCC(C)CN1CC2(CCN(c3ncnc4sc(CC(F)(F)F)cc34)C2)C1 (stereo not drawn) [Example 110, 4-(2-(2-methylbutyl)-2,6-diazaspiro[3.4]octan-6-yl)-6-(2,2,2-trifluoroethyl)thieno[2,3-d]pyrimidine]
100 to 1000 nM	< 100 nM	O=c1[nH]c2cc(CN3CCC4(CCN(c5ncnc6cc(CC(F)(F)F)sc56)C4)C3)ccc2n1CCO (stereo not drawn) [Example 119, 1-(2-hydroxyethyl)-5-((7-(6-(2,2,2-trifluoroethyl)thieno[3,2-d]pyrimidin-4-yl)-2,7-diazaspiro[4.4]nonan-2-yl)methyl)-1H-benzo[d]imidazol-2(3H)-one]
≥ 1000 nM	< 100 nM	O=c1[nH]c2ccc(CN3CCC4(CCN(c5ncnc6sc(CC(F)(F)F)cc56)C4)C3)cc2n1CCO (stereo not drawn) [Example 120]
